Measured values as given in patent US7033829B2, “Method to inhibit cell growth using oligonucleotides” (Trustees of Boston University, priority 2000, dated 2006).
Oligonucleotides are written 5' to 3', each unit as a sugar letter and its base; * is a phosphorothioate linkage, no mark a phosphodiester; rarer units and linkages stand in square brackets, end groups in braces. Plain capitals give the bases only. d = 2'-deoxy (DNA); {P} = phosphate

Tests used:
[1] = tested on: serine 15-phosphorylated p53, total p53, E2F1; experiment: Western blot of p53 serine 15 phosphorylation and E2F1 in normal control fibroblasts; type: cell-based, human; conditions: 40 μM
Method: Because the serine 15 site on p53 is known to be phosphorylated in an ATM-dependent manner after exposure to ionizing radiation (IR), we wished to examine the role of ATM in E2F1 induction and p53 serine 15 phosphorylation in response to the 11 mer-1. Fibroblasts from a patient with ataxia telangiectasia (AT) known to lack functional ATM protein, and age-matched normal control fibroblasts (N) were treated with either diluent, 40 μM 11mer-1, sham irradiation or IR (10 Gy). Cells were collected 3 hours (sham or IR) or 48 hours (diluent, 11mer-1) for western blot analysis to detect serine 15-phosphorylated p53 and total p53. In normal fibroblasts, the 11mer-1 induced a 10–15 fold increase in the level p53 phosphorylation on serine 15 compared to diluent-treated controls.

[2] = tested on: Human cervical carcinoma cells (HeLa cells); experiment: Cell growth of HeLa cells; type: cell-based; conditions: 100 μM; 1, 4 and 6 days after dosage
Method: Human cervical carcinoma cells (HeLa cells) were maintained in DME+10% calf serum and dosed with either water (diluent) or 100 μM T2. Cells were collected 1, 4 and 6 days after dosage and counted by Coulter™ counter.

[3] = tested on: UV-damaged CAT reporter plasmid in human keratinocytes; experiment: Repair of UV-damaged CAT reporter plasmid in keratinocytes; type: cell-based; conditions: 100 μM for five days before transfection; plasmid 100 mJ/cm^2 UVB
Excerpt: Expression of a UV-damaged reporter plasmid containing the bacterial chloramphenicol acetyltransferase (CAT) gene under the control of SV40 promoter and enhancer sequences was previously shown to detect decreased DNA repair capacity in human lymphocytes associated with aging and early-onset skin cancers. This reporter plasmid was used to measure the DNA repair capacity of normal neonatal human skin-derived fibroblasts and keratinocytes.
Keratinocytes from newborns were established as described (Stanulis-Praeger, B. M. and Gilchrest, B. A., J. Cell. Physiol. 139:116–124 (1989)) using a modification of the method of Rheinwald and Green (Gilchrest, B. A. et al., J. Invest. Dermatol. 101:666–672 (1993)). First-passage keratinocytes were maintained in a non-differentiating low Ca^2+ medium (K-Stim, Collaborative Biomedical Products, Bedford, Mass.). […] CAT enzyme activity was determined using the liquid scintillation counting protocol and components of the assay system kit. […] Protein concentration in the cell extracts was determined by the method of Bradford (Anal. Biochem. 72:248 […]). CAT activity was expressed as c.p.m./100 μg protein and is represented as percent activity of cells transfected with sham-irradiated, non-damaged, plasmid.

pGTTAGGGTTAG (DNA {P}-dGdTdTdAdGdGdGdTdTdAdG) [SEQ ID NO: 5]
E2F1 levels [1]: induced E2F1 levels | increase in p53 phosphorylation on serine 15 compared to diluent ([1]; 48 hours): 10–15 fold | level of total p53 ([1]; young adult donor, 48 hours): minimally induced

thymidine dinucleotide [pTpT]
cell growth rate [2]: marked decreases in cell growth rate | CAT activity relative to sham-irradiated transfected controls [3]: more than 50%
